Results: patent US10662203B2, “Pyrido[2,3-b]indole compounds for the treatment and prophylaxis of bacterial infection” (Hoffmann-La Roche Inc., priority 2017, dated 2020)
Values after ≈ are worked out from the molar mass of the structure shown. Read-outs that look alike come from different tables or passages of the source.

Key:
[1] = Cytotoxicity assay (HepG2, CellTiter-Blue cell viability); type: cell-based; conditions: human
Experimental: The cytotoxicity of compounds of present invention was assessed by HepG2 assay. HepG2 cells (ATCC HB-8065™) were seeded into 96-well plates (1.2×10^4 cells per well) and treated with compounds for 3 days, cell viability was measured at day 3 post compound treatment using the CellTiter-Blue® Cell Viability Assay (Promega, Cat. No. G8082). 20 μL of Cell titer blue buffer were added to each well of the cells, which were incubated for 3 hours at 37° C., and the fluorescence value was measured by a plate reader (Molecular Device SpectraMax M2). The CC50 value of each compound is plotted with GraphPad Prism using four parameter logistic equation.

[2] = system: K. pneumoniae (ATCC10031); test: 50% growth inhibitory concentration (IC50) determination assay; type: cell-based; conditions: Klebsiella pneumoniae, Iso-Sensitest broth, 0.098 = detection limit
Outline: (§1)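 Broth microdilution in Iso-Sensitest medium, ~5×10^5 CFU/mL inoculum, compound 50–0.097 μM final (two-fold series), 35±2° C; OD600 read every 20 min over 16 h.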

S. aureus (ATCC29213) = test: as above; type: cell-based; conditions: Staphylococcus aureus, Iso-Sensitest broth, 0.098 = detection limit
Outline: as §1

A. baumannii (ATCC17978) = test: as above; type: cell-based; conditions: Acinetobacter baumannii, ATCC17978, A. baumannii ATCC17978; Iso-Sensitest broth; 0.098 = detection limit
Outline: as §1

[3] = Lyophilisation solubility assay (LYSA); type: physicochemical; conditions: phosphate buffer, pH 6.5, aqueous buffer, thermodynamic from solid, 0.05 M phosphate buffer, HPLC-UV
Outline: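 Read-out is HPLC-UV of the filtered solution and its 1/10 dilution. The dried residue of a 10 mM DMSO stock was redissolved in 0.05 M pH 6.5 phosphate buffer, then stirred 1 h, shaken 2 h and held overnight. Run in duplicate.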

[4] = HepG2 cells, 3 days treatment, "*": the detection limit, read-out: CC50

Compound	CC50 at 3 days [1, 4]	IC50 [2]	IC50 (S. aureus (ATCC29213))	IC50 (A. baumannii (ATCC17978))	CC50 at 3 days [1]	solubility thermodynamic [3]
CCNc1cc(F)cc2c1[nH]c1ncc(-c3cnc4c(c3)c(=O)c(C(=O)O)cn4C3CCNC3)c(N3CCOCC3)c12 (centres unmarked) [Example 1.34]	> 100 µM					
CNc1cc(F)c(F)c2c1[nH]c1ncc(-c3cnc4c(c3)c(=O)c(C(=O)O)cn4C)c(N3CCC4(CCN(C)C4)CC3)c12 [Example 1.231]	37.2 µM	< 0.098 µM	< 0.098 µM	0.542 µM		
CNc1cc(F)cc2c1[nH]c1ncc(-c3cnc4c(c3)c(=O)c(C(=O)O)cn4NC)c(N3CC4[C@@H](C3)OCCN4C)c12 (some centres unmarked) [Example 1.113]	> 100 µM	< 0.098 µM	< 0.098 µM	0.586 µM		
CCNc1cc(F)cc2c1[nH]c1ncc(-c3cnc4c(c3)c(=O)c(C(=O)O)cn4CC)c(-n3cc(CN)c(C(F)(F)F)n3)c12 [Example 1.15]	> 100 µM	< 0.098 µM	< 0.098 µM	0.403 µM		
CNc1cc(F)c(F)c2c1[nH]c1ncc(-c3cnc4c(c3)c(=O)c(C(=O)O)cn4C)c(N3CCCC(CN(C)C)C3)c12 (centres unmarked) [Example 1.80]	27.5 µM	< 0.098 µM	< 0.098 µM	0.132 µM		
CNc1cc(F)c(F)c2c1[nH]c1ncc(-c3cnc4c(c3)c(=O)c(C(=O)O)cn4CC(C)(C)O)c(N3CCOCC3)c12 [Example 1.35]	76.9 µM	< 0.098 µM	< 0.098 µM	0.663 µM		
CNc1cc(F)c(F)c2c1[nH]c1ncc(-c3cnc4c(c3)c(=O)c(C(=O)O)cn4C)c(N3CCC4(CCCN(CCO)C4)C3)c12 (centres unmarked) [Example 1.194]	72 µM	< 0.098 µM	< 0.098 µM	0.199 µM		
CNc1cc(F)c(F)c2c1[nH]c1ncc(-c3cnc4c(c3)c(=O)c(C(=O)O)cn4C)c(N3CCC(N)(C(F)(F)F)C3)c12 (centres unmarked) [Example 1.27]	28.2 µM		< 0.098 µM	0.602 µM		
CNc1c(Cl)c(F)cc2c1[nH]c1ncc(-c3cnc4c(c3)c(=O)c(C(=O)O)cn4C3CCNC3)c(N(C)C)c12 (centres unmarked) [Example 1.68]	26.5 µM					
CNc1cc(F)cc2c1[nH]c1ncc(-c3cnc4c(c3)c(=O)c(C(=O)O)cn4Cc3cnccn3)c(N3CCOCC3)c12 [Example 1.58]	> 100 µM		< 0.098 µM	0.643 µM		
CNc1cc(F)c(F)c2c1[nH]c1ncc(-c3cnc4c(c3)c(=O)c(C(=O)O)cn4CC3COCCN3)c(N(C)CCOC)c12 (centres unmarked) [Example 1.41]	90.2 µM					
CNc1cc(F)c(F)c2c1[nH]c1ncc(-c3cnc4c(c3)c(=O)c(C(=O)O)cn4C)c(N3CCC4(CN(C)C4)C3)c12 [Example 1.228]	> 100 µM					
CNc1cc(F)c(F)c2c1[nH]c1ncc(-c3cnc4c(c3)c(=O)c(C(=O)O)cn4C)c(N3CC[C@@H](O)C3)c12 [Example 1.151]	37.2 µM	< 0.098 µM	< 0.098 µM	0.311 µM		
CNc1cc(F)c(F)c2c1[nH]c1ncc(-c3cnc4c(c3)c(=O)c(C(=O)O)cn4C)c(N3CCC(F)(CN)C3)c12 (centres unmarked) [Example 1.23]	> 100 µM	< 0.098 µM	< 0.098 µM	0.507 µM		
CNc1cc(F)c(Cl)c2c1[nH]c1ncc(-c3cnc4c(c3)c(=O)c(C(=O)O)cn4C)c(N3CCOCC3)c12 [Example 1.269]	40.8 µM	< 0.098 µM	< 0.098 µM	0.088 µM		
CNc1cc(F)c(F)c2c1[nH]c1ncc(-c3cnc4c(c3)c(=O)c(C(=O)O)cn4C)c(N3CCC(C)(CO)C3)c12 (centres unmarked) [Example 1.84]	26.8 µM	0.11 µM	< 0.098 µM	0.326 µM		
CNc1cc(F)c(F)c2c1[nH]c1ncc(-c3cnc4c(c3)c(=O)c(C(=O)O)cn4C3CCNC3)c(N3CCO[C@@H](C)C3)c12 (some centres unmarked) [Example 1.251]	> 100 µM					

Compound	CC50 at 3 days [1, 4]	IC50 [2]	IC50 (S. aureus (ATCC29213))	IC50 (A. baumannii (ATCC17978))	CC50 at 3 days [1]	solubility thermodynamic [3]
CNc1cc(F)c(F)c2c1[nH]c1ncc(-c3cnc4c(c3)c(=O)c(C(=O)O)cn4CC3COCCN3)c(N3CCOCC3)c12 (centres unmarked) [Example 1.31]	49 µM					
CNc1cc(F)cc2c1[nH]c1ncc(-c3cnc4c(c3)c(=O)c(C(=O)O)cn4C)c(N3CCC(O)C3)c12 (centres unmarked) [Example 1.47]	> 100 µM					
CNc1cc(F)cc2c1[nH]c1ncc(-c3cnc4c(c3)c(=O)c(C(=O)O)cn4C)c(N3CCC(O)(C(F)(F)F)C3)c12 (centres unmarked) [Example 1.25]	62.6 µM					
CNc1cc(F)cc2c1[nH]c1ncc(-c3cnc4c(c3)c(=O)c(C(=O)O)cn4CC3COCCN3)c(NC)c12 (centres unmarked) [Example 1.37]	55.5 µM					
CNc1cc(F)cc2c1[nH]c1ncc(-c3cnc4c(c3)c(=O)c(C(=O)O)cn4C(C)(CO)CO)c(N3CCOCC3)c12 [Example 1.44]	> 100 µM					
CNc1cc(F)c(F)c2c1[nH]c1ncc(-c3cnc4c(c3)c(=O)c(C(=O)O)cn4CC3CNCCO3)c(N3CCOCC3)c12 (centres unmarked) [Example 1.42]	> 100 µM					
CCn1cc(C(=O)O)c(=O)c2cc(-c3cnc4[nH]c5c(NC)cc(F)c(F)c5c4c3N3CC4CC(C3)O4)cnc21 [Example 1.128]					27.1 µM	
CCNc1cc(C(F)(F)F)cc2c1[nH]c1ncc(-c3cnc4c(c3)c(=O)c(C(=O)O)cn4NC)c(N3CC[C@H]4CN(C)CC43)c12 (some centres unmarked) [Example 1.123]		< 0.098 µM	< 0.098 µM	0.696 µM		48 µg/mL (≈ 77.3 µM)
CNc1cc(Cl)c(F)c2c1[nH]c1ncc(-c3cnc4c(c3)c(=O)c(C(=O)O)cn4C)c(N3CC[C@H]4CN(C)CC43)c12 (some centres unmarked) [Example 1.267]		< 0.098 µM	< 0.098 µM	0.072 µM		104 µg/mL (≈ 181 µM)
CNc1cc(F)cc2c1[nH]c1ncc(-c3cnc4c(c3)c(=O)c(C(=O)O)cn4NC)c(N3C[C@@H]4CCN(C)[C@@H]4C3)c12 [Example 3.17B]		< 0.098 µM	< 0.098 µM	0.075 µM		125 µg/mL (≈ 225 µM)
CNc1cc(F)c(F)c2c1[nH]c1ncc(-c3cnc4c(c3)c(=O)c(C(=O)O)cn4CC3CCCN3)c(N3CCOCC3)c12 (centres unmarked) [Example 1.11]	> 100 µM			0.847 µM		
CNc1cc(F)c(F)c2c1[nH]c1ncc(-c3cnc4c(c3)c(=O)c(C(=O)O)cn4NC)c(N3C[C@@H]4CCN(C)[C@@H]4C3)c12 [Example 3.07B]		< 0.098 µM	0.122 µM	0.155 µM		33 µg/mL (≈ 57.4 µM)
CNc1cc(F)c(F)c2c1[nH]c1ncc(-c3cnc4c(c3)c(=O)c(C(=O)O)cn4NC)c(N3CC4[C@@H](C3)OCCN4C)c12 (some centres unmarked) [Example 1.242]		< 0.098 µM	< 0.098 µM	0.189 µM		24 µg/mL (≈ 40.6 µM)
CCNn1cc(C(=O)O)c(=O)c2cc(-c3cnc4[nH]c5c(NC)cc(F)c(F)c5c4c3N3CC[C@@H](N(C)C)C3)cnc21 [Example 1.258]		< 0.098 µM	< 0.098 µM	< 0.098 µM		17 µg/mL (≈ 29.5 µM)
CCn1cc(C(=O)O)c(=O)c2cc(-c3cnc4[nH]c5c(NC)cc(F)cc5c4c3N3CC[C@H]4CN(C)CC43)cnc21 (some centres unmarked) [Example 1.289]		< 0.098 µM	< 0.098 µM	0.21 µM		113 µg/mL (≈ 203 µM)
CNc1cc(F)cc2c1[nH]c1ncc(-c3cnc4c(c3)c(=O)c(C(=O)O)cn4NCC(F)(F)F)c(N3CCC[C@H]3CN(C)C)c12 [Example 1.153]		< 0.098 µM	0.372 µM	0.388 µM		201 µg/mL (≈ 321 µM)
